Some results are limits rather than exact numbers.

Common to all, as to format: cell-based
The subject of data set [1] is Raji. The experiment in a line: Inhibition of TPA-induced EBV-early antigen activation in human Raji cells assessed as early antigen activation at 100 mol ratio after 48 hrs relative to TPA. The note with it: human gammaherpesvirus 4.
A short description of data set [2]: Cytotoxicity against human Raji cells assessed as cell viability at 10 mol ratio after 48 hrs relative to TPA. The note with it: read-out: Activity.
The nature of data set [3]: Cytotoxicity against human Raji cells assessed as cell viability at 1000 mol ratio after 48 hrs relative to TPA. The note with it: read-out: Activity.
Data set [4] in a line: Cytotoxicity against human Raji cells assessed as cell viability at 5000 mol ratio after 48 hrs relative to TPA. As to conditions: read-out: Activity.
For data set [5], the system named is Raji. The experiment in a line: Inhibition of TPA-induced EBV-early antigen activation in human Raji cells assessed as early antigen activation at 1000 mol ratio after 48 hrs relative to TPA. Details: scale not given: the % may be the effect or the level left. The note with it: human gammaherpesvirus 4.
For data set [6], the system named is Raji. The experiment in a line: Inhibition of TPA-induced EBV-early antigen activation in human Raji cells assessed as early antigen activation at 10 mol ratio after 48 hrs relative to TPA. As to conditions: human gammaherpesvirus 4.
Data set [7] can be described thus: Cytotoxicity against human Raji cells assessed as cell viability at 100 mol ratio after 48 hrs relative to TPA. The note with it: read-out: Activity.
Data set [8] concerns Raji. The data set is described as follows: Inhibition of TPA-induced EBV-early antigen activation in human Raji cells assessed as early antigen activation at 5000 mol ratio after 48 hrs relative to TPA. Details: scale not given: the % may be the effect or the level left. The note with it: human gammaherpesvirus 4.
Data set [9] relates to Raji. The experiment in a line: Inhibition of EBV-early antigen activation in human Raji cells assessed as early antigen activation at 1 uM ratio after 48 hrs. Details: scale not given: the % may be the effect or the level left.

On to `C=C(C)[C@@H]1CC[C@]2(C(=O)O)CC[C@]3(C)[C@H](CC[C@@H]4[C@@]5(C)CC[C@H](OC(C)=O)C(C)(C)[C@@H]5CC[C@]43C)[C@@H]12`, for which the EBV early antigen activation relative to TPA in the data set with Raji [1] was found to be 55.1%. Moreover, the viability at 48 h, 10 mol ratio relative to TPA in [2] turned out to be 100%. For the same compound, the viability at 48 h, 1000 mol ratio relative to TPA in data set [3] stood at 80%. Besides, the viability at 48 h, 5000 mol ratio relative to TPA in data set [4] came to 80%. Besides, the Activity with Raji [5], in the data set on Raji [8] and in the data set with Raji [9] was 0% throughout. In addition, the EBV-EA activation relative to TPA in the data set with Raji [6] was 100%. Further, in [7], the viability at 48 h, 100 mol ratio relative to TPA was 80%.

As to `CC1(C)CC[C@]2(C)CC[C@]3(C)C(=CC[C@@H]4[C@@]5(C)C(=O)CC(=O)C(C)(C)[C@@H]5CC[C@]43C)[C@@H]2C1`, in the data set with Raji [1], the EBV early antigen activation relative to TPA worked out at 100%. For the same compound, the viability at 48 h, 10 mol ratio relative to TPA in data set [2] is 100%. Also, the viability at 48 h, 1000 mol ratio relative to TPA in [3] was 20%. For the same compound, the viability at 48 h, 5000 mol ratio relative to TPA in data set [4] was found to be 0%. For the same compound, the Activity with Raji [5], in the data set on Raji [8] and with Raji [9] was 0% each time. Moreover, the EBV-EA activation relative to TPA in the data set with Raji [6] came to 100%. The viability at 48 h, 100 mol ratio relative to TPA in data set [7] came out at 100%.

Consider `CC(=O)O[C@H]1CC[C@]2(C)[C@H]3CC=C4[C@@H]5CC(C)(C)CC[C@]5(CO)CC[C@@]4(C)[C@]3(C)CC[C@H]2C1(C)C`, for which the EBV early antigen activation relative to TPA in the data set on Raji [1] was 59.4%. In addition, in data set [2], the viability at 48 h, 10 mol ratio relative to TPA was determined as 100%. Further, the viability at 48 h, 1000 mol ratio relative to TPA in data set [3] turned out to be 70%. Further, in data set [4], the viability at 48 h, 5000 mol ratio relative to TPA was determined as 40%. Moreover, the Activity in the data set on Raji [5] is 32.3%; in the data set with Raji [8], 0%; in the data set on Raji [9], 0%. In addition, in the data set on Raji [6], the EBV-EA activation relative to TPA stood at 100%. Moreover, in data set [7], the viability at 48 h, 100 mol ratio relative to TPA is over 80%.

With `CC(=O)OC[C@]12CCC(C)(C)C[C@H]1C1=CC[C@@H]3[C@@]4(C)CC[C@H](OC(C)=O)C(C)(C)[C@@H]4CC[C@@]3(C)[C@]1(C)CC2`, in the data set with Raji [1], the EBV early antigen activation relative to TPA worked out at 100%. In data set [2], the viability at 48 h, 10 mol ratio relative to TPA was found to be 100%. Also, in data set [3], the viability at 48 h, 1000 mol ratio relative to TPA was found to be 100%. The viability at 48 h, 5000 mol ratio relative to TPA in data set [4] was 50%. Also, the Activity was determined as 100% in the data set on Raji [5], 0% with Raji [8] and 0% in the data set on Raji [9]. In addition, the EBV-EA activation relative to TPA with Raji [6] was 100%. Further, the viability at 48 h, 100 mol ratio relative to TPA in data set [7] is 100%.

As for `CC(=O)O[C@@H]1C[C@]2(C)[C@H]3CC=C4[C@@H]5CC(C)(C)CC[C@]5(C(=O)O)CC[C@@]4(C)[C@]3(C)CC[C@H]2C(C)(C)[C@H]1OC(C)=O`, the EBV early antigen activation relative to TPA with Raji [1] was found to be 59.6%. In addition, the viability at 48 h, 10 mol ratio relative to TPA in data set [2] came to 100%. Also, in data set [3], the viability at 48 h, 1000 mol ratio relative to TPA stood at 20%. In data set [4], the viability at 48 h, 5000 mol ratio relative to TPA is 0%. For the same compound, the Activity with Raji [5], with Raji [8] and in the data set on Raji [9] was 0% throughout. Besides, in the data set on Raji [6], the EBV-EA activation relative to TPA came to 100%. For the same compound, the viability at 48 h, 100 mol ratio relative to TPA in [7] was 70%.

Turning to `C=C(C)[C@@H]1CC[C@]2(C(=O)O)CC[C@]3(C)[C@H](CC[C@@H]4[C@@]5(C)CC[C@H](O)C(C)(C)[C@@H]5CC[C@]43C)[C@@H]12` [BETULINIC ACID], the EBV early antigen activation relative to TPA with Raji [1] turned out to be 100%. Besides, the viability at 48 h, 10 mol ratio relative to TPA in data set [2] was 100%. The viability at 48 h, 1000 mol ratio relative to TPA in data set [3] was over 80%. Moreover, the viability at 48 h, 5000 mol ratio relative to TPA in [4] was 20%. The Activity came to 80% with Raji [5], 0% in the data set with Raji [8] and 0% with Raji [9]. In addition, in data set [7], the viability at 48 h, 100 mol ratio relative to TPA worked out at 100%.

The values above are taken from ChEMBL document CHEMBL1150740, “Studies on inhibitors of skin-tumor promotion, I. Inhibitory effects of triterpenes from Euptelea polyandra on Epstein-Barr virus activation” (J Nat Prod, 1987).
